From paper PMC8470823, “8-Amino-6-Methoxyquinoline—Tetrazole Hybrids: Impact of Linkers on Antiplasmodial Activity” (Molecules, 2021) come the findings set out here.

pIC50: −log10 of the molar value. Where two headings read alike, the source gives them in different places.

As a reminder, the IC50 is the concentration that inhibits the measured activity by half. What is called pIC50 is the negative decadic logarithm of the IC50, by convention in mol/L.

Data set [1] is described as follows: In vitro cytotoxicity with L-6 cells (Alamar Blue). It is filed as cell-based, rat. How it is done: (§1) Serial drug dilutions of 11 3-fold dilution steps covering a range from 100 to 0.002 μg/mL were prepared. After 70 h of incubation, the plates were inspected under an inverted microscope to assure the growth of the controls and sterile conditions. Then, 0.01 mL of Alamar Blue was added to each well and the plates incubated for another 2 h. The plates were read with a Spectramax Gemini XS microplate fluorometer (Molecular Devices Cooperation, Sunnyvale, CA, USA) using an excitation wavelength of 536 nm and an emission wavelength of 588 nm. The IC50 values were calculated by linear regression from the sigmoidal dose inhibition curves using SoftmaxPro software (Molecular Devices Cooperation, Sunnyvale, CA, USA). Podophyllotoxin (Sigma P4405) was used as control.
In general terms: The colour change of resazurin is a common sign of viable cells or microbes.

Data set [2] concerns P. falciparum NF54. In words: In vitro microplate assay against P. falciparum (3H-hypoxanthine incorporation). The settings on record: for S.I. = IC50 (Cyt.)/IC50 (P.f. NF54): selectivity index: L-6 cells IC50 / P.f. NF54 IC50. It is filed as cell-based, Plasmodium falciparum. As to the method:
Chloroquine (Sigma C6628) was used as standard. Compounds were dissolved in DMSO at 10 mg/mL and added to parasite cultures incubated in RPMI 1640 medium without hypoxanthine, supplemented with HEPES (5.94 g/L), NaHCO3 (2.1 g/L), neomycin (100 U/mL), Albumax (5 g/L) and washed human red cells A^+ at 2.5% hematocrit (0.3% parasitemia). Serial drug dilutions of 11 3-fold dilution steps covering a range from 100 to 0.002 μg/mL were prepared. […] After 48 h, 0.05 mL of ^3H-hypoxanthine (=0.5 μCi) was added to each well of the plate. The plates were incubated for a further 24 h under the same conditions. The plates were then harvested with a Betaplate cell harvester (Wallac, Zurich, Switzerland). The red blood cells were transferred onto a glass fiber filter and washed with distilled water. The dried filters were inserted into a plastic foil with 10 mL of scintillation fluid and counted in a Betaplate liquid scintillation counter (Wallac, Zurich, Switzerland). IC50 values were calculated from sigmoidal inhibition curves by linear regression using Microsoft Excel. Artemisinin and chloroquine were used as control.

In data set [3] the test system is L-6 cells. In words: In vitro cytotoxicity with L-6 cells (Alamar Blue). It counts as cell-based, rat. How it is done: as §1
Where [4] appears, read: rat, Cytotoxicity L-6 Cells IC50.
Setting [5] is: Plasmodium falciparum, chloroquine-sensitive strain NF54, erythrocytic stages, average of four determinations, read-out: P.f. NF54 IC50.
[6] abbreviates: rat skeletal myoblasts, average of four determinations, read-out: Cytotoxicity L-6 Cells IC50.

In data set [1] (setting [4]), `COc1cc(NC(c2ccc(C)cc2)c2nnnn2C(C)(C)C)c2ncccc2c1` (stereo not drawn) [Compound 19, 6-Methoxy-N-((4-methylphenyl)(1-tert-butyl-1H-tetrazol-5-yl)methyl)quinolin-8-amine] had a half-inhibitory concentration (IC50) at 72 h of 248 µM. The pIC50 in data set [2] (setting [5]) was 5.98. Also, the “S.I. = IC50 (Cyt.)/IC50 (P.f. NF54)” value in data set [2] came to 238.9.

For the compound `COc1cc(NC(c2ccc(Cl)cc2)c2nnnn2C(C)(C)C)c2ncccc2c1` (stereo not drawn) [Compound 16, N-((4-Chlorophenyl)(1-tert-butyl-1H-tetrazol-5-yl)methyl)-6-methoxyquinolin-8-amine], the IC50 at 72 h in data set [1] (setting [4]) came to 236 µM. In addition, in data set [2] (setting [5]), the pIC50 is 6.13. In data set [2], the “S.I. = IC50 (Cyt.)/IC50 (P.f. NF54)” value is 318.3.

Consider `COc1cc(NC(c2ccc(C(F)(F)F)cc2)c2nnnn2C(C)(C)C)c2ncccc2c1` (stereo not drawn) [Compound 18, 6-Methoxy-N-((1-tert-butyl-1H-tetrazol-5-yl)(4-(trifluoromethyl)phenyl)methyl)quinolin-8-amine], for which, in data set [1] (setting [4]), the IC50 at 72 h is 176 µM. Besides, the pIC50 in data set [2] (setting [5]) was 6.19. Moreover, the “S.I. = IC50 (Cyt.)/IC50 (P.f. NF54)” value in data set [2] was determined as 273.3.

Consider `COc1cc(NC(c2cccc3ccccc23)c2nnnn2C(C)(C)C)c2ncccc2c1` (stereo not drawn) [Compound 21, 6-Methoxy-N-((naphthalen-1-yl)(1-tert-butyl-1H-tetrazol-5-yl)methyl)quinolin-8-amine], for which the IC50 at 72 h in data set [1] (setting [4]) is 173 µM. The pIC50 in data set [2] (setting [5]) is 5.90. In data set [2], the “S.I. = IC50 (Cyt.)/IC50 (P.f. NF54)” value stood at 137.6.

`COc1cc(NCCNC(c2ccc(Br)cc2)c2nnnn2C(C)(C)C)c2ncccc2c1` (stereo not drawn) [Compound 11, N^1-((4-Bromophenyl)(tert-butyl-1H-tetrazol-5-yl)methyl)-N^2-(6-methoxyquinolin-8-yl)ethan-1,2-diamine] displayed a half-maximal inhibitory concentration (IC50) at 72 h in data set [1] (setting [4]) of 34.1 µM. Besides, in data set [2] (setting [5]), the pIC50 was 5.60. For the same compound, in data set [2], the “S.I. = IC50 (Cyt.)/IC50 (P.f. NF54)” value is listed as 13.57.

In data set [1] (setting [4]), `CCCCCCCC(Nc1cc(OC)cc2cccnc12)c1nnnn1C(C)(C)C` (stereo not drawn) [Compound 22, 6-Methoxy-N-(1-(1-tert-butyl-1H-tetrazol-5-yl)octyl)quinolin-8-amine] yielded an IC50 at 72 h of 54.7 µM. The pIC50 in data set [2] (setting [5]) is 6.49. For the same compound, the “S.I. = IC50 (Cyt.)/IC50 (P.f. NF54)” value in data set [2] was determined as 168.9.

Turning to “N^1-(6-Methoxyquinolin-8-yl)-N^2-((tert-butyl-1H-tetrazol-5-yl)(2-(trifluoromethyl)phenyl) methyl)-ethan-1,2-diamine [Compound 12]”, the pIC50 is 4.65 in data set [3] and 5.53 in data set [2] (chloroquine-sensitive strain NF54, erythrocytic stages, average of four determinations, read-out: P.f. NF54 IC50). The “S.I. = IC50 (Cyt.)/IC50 (P.f. NF54)” value in data set [2] came out at 7.64.

Turning to `COc1cc(NC(c2ccc(F)cc2)c2nnnn2C(C)(C)C)c2ncccc2c1` (stereo not drawn) [Compound 15, N-((4-Fluorophenyl)(1-tert-butyl-1H-tetrazol-5-yl)methyl)-6-methoxyquinolin-8-amine], the pIC50 in data set [3] (rat, 72 h) is 3.91; in data set [2] (setting [5]) it was 5.57. Moreover, in data set [1] (setting [4]), the IC50 at 72 h lay in the range of 119 to 124 µM.

Take `COc1cc([C@@H]2c3cc4c(cc3[C@H](O)[C@H]3COC(=O)[C@H]23)OCO4)cc(OC)c1OC` [POD, podophyllotoxin, reference compound]: the pIC50 in data set [3] (setting [6]) was 7.92.

In the case of `CCN(CC)CCCC(C)Nc1ccnc2cc(Cl)ccc12` (stereo not drawn) [CQ, chloroquine, reference compound], the IC50 at 72 h in data set [1] (setting [6]) was found to be 90.9 µM. For the same compound, in data set [2] (Plasmodium falciparum, NF54, read-out: P.f. NF54 IC50), the pIC50 was 8.41. For the same compound, the “S.I. = IC50 (Cyt.)/IC50 (P.f. NF54)” value in data set [2] was 23,313.

On to `COc1cc(NCCNC(c2ccc(Cl)cc2)c2nnnn2C(C)(C)C)c2ncccc2c1` (stereo not drawn) [Compound 10, N^1-((4-Chlorophenyl)(tert-butyl-1H-tetrazol-5-yl)methyl)-N^2-(6-methoxyquinolin-8-yl)ethan-1,2-diamine], for which the IC50 at 72 h in data set [1] (setting [4]) came out at 92.3 µM. Further, the negative logarithm of the IC50 (pIC50) in data set [2] (setting [5]) was 5.27. In addition, the “S.I. = IC50 (Cyt.)/IC50 (P.f. NF54)” value in data set [2] was 17.29.

For `COc1cc(NCCNC(c2ccc(F)cc2)c2nnnn2C(C)(C)C)c2ncccc2c1` (stereo not drawn) [Compound 9, N^1-((4-Fluorophenyl)(tert-butyl-1H-tetrazol-5-yl)methyl)-N^2-(6-methoxyquinolin-8-yl)ethan-1,2-diamine], the IC50 at 72 h in data set [1] (setting [4]) was 55.4 µM. Besides, in data set [2] (setting [5]), the pIC50 was 5.15. For the same compound, the “S.I. = IC50 (Cyt.)/IC50 (P.f. NF54)” value in data set [2] amounted to 7.86.

The compound `COc1cc(NCCNC(c2ccccc2)c2nnnn2C(C)(C)C)c2ncccc2c1` (stereo not drawn) [Compound 8, N^1-(6-Methoxyquinolin-8-yl)-N^2-((phenyl)(tert-butyl-1H-tetrazol-5-yl)methyl)ethan-1,2-diamine] returned an IC50 at 72 h in data set [1] (setting [4]) of 58 µM. Besides, the pIC50 in data set [2] (setting [5]) is 5.22. In addition, the “S.I. = IC50 (Cyt.)/IC50 (P.f. NF54)” value in data set [2] stood at 9.52.

For the compound `COc1cc(NC(c2ccccc2)c2nnnn2C(C)(C)C)c2ncccc2c1` (stereo not drawn) [Compound 14, 6-Methoxy-N-((phenyl)(1-tert-butyl-1H-tetrazol-5-yl)methyl)quinolin-8-amine], inhibition in data set [1] (setting [4]) was half-maximal at 49 µM (IC50 at 72 h). Moreover, the pIC50 in data set [2] (setting [5]) was 5.29. In addition, the “S.I. = IC50 (Cyt.)/IC50 (P.f. NF54)” value in data set [2] came to 9.56.

In data set [1] (setting [4]), `CCC(Nc1cc(OC)cc2cccnc12)c1nnnn1C(C)(C)C` (stereo not drawn) [Compound 13, 6-Methoxy-N-(1-(1-tert-butyl-1H-tetrazol-5-yl)propyl)quinolin-8-amine] had an IC50 at 72 h of 91.1 µM. Moreover, in data set [2] (setting [5]), the pIC50 was 4.63. Moreover, the “S.I. = IC50 (Cyt.)/IC50 (P.f. NF54)” value in data set [2] worked out at 3.86.

`CCC(NCCNc1cc(OC)cc2cccnc12)c1nnnn1C(C)(C)C` (stereo not drawn) [Compound 7, N^1-(6-Methoxyquinolin-8-yl)-N^2-(1-(tert-butyl-1H-tetrazol-5-yl)propyl)ethan-1,2-diamine] returned an IC50 at 72 h in data set [1] (setting [4]) of 144 µM. In data set [2] (setting [5]), the pIC50 was 4.80.

Consider `COc1cc(NC(c2ccc(Br)cc2)c2nnnn2C(C)(C)C)c2ncccc2c1` (stereo not drawn) [Compound 17, N-((4-Bromophenyl)(1-tert-butyl-1H-tetrazol-5-yl)methyl)-6-methoxyquinolin-8-amine], for which, in data set [1] (setting [4]), the IC50 at 72 h came to 96.9 µM. For the same compound, the pIC50 in data set [2] (setting [5]) is 6.33. Moreover, the “S.I. = IC50 (Cyt.)/IC50 (P.f. NF54)” value in data set [2] is reported as 208.8.

In the case of `COc1cc(NC(c2ccc(C(C)C)cc2)c2nnnn2C(C)(C)C)c2ncccc2c1` (stereo not drawn) [Compound 20, 6-Methoxy-N-((4-(propan-2-yl)phenyl)(1-tert-butyl-1H-tetrazol-5-yl)methyl)quinolin-8-amine], the pIC50 in data set [3] (rat, 72 h) was 3.92; in data set [2] (setting [5]), 5.70. Further, the half-inhibitory concentration (IC50) at 72 h in data set [1] (setting [4]) was in the range of 119 to 124 µM.
